Laboratory results as given in patent publication US20250302815A1, “PROTEIN TYROSINE PHOSPHATASE TARGETING LIGANDS” (CALICO LIFE SCIENCES LLC, priority 2021, published 2025).

Legend:
[1] = target: T1, PTPN2 (HiBIT-PTPN2 in 293T.109 cells) (Homo sapiens, UniProt P17706); experiment: HiBiT Degradation 293T.109 PTPN2 (Nano-Glo HiBiT Lytic Assay); format: cell-based; settings: 24.0 hours
T1 construct: expressed in transfected cells; host or cells: 293T.109 (293T WT from ATCC)
T1 sequence (P17706 1-415): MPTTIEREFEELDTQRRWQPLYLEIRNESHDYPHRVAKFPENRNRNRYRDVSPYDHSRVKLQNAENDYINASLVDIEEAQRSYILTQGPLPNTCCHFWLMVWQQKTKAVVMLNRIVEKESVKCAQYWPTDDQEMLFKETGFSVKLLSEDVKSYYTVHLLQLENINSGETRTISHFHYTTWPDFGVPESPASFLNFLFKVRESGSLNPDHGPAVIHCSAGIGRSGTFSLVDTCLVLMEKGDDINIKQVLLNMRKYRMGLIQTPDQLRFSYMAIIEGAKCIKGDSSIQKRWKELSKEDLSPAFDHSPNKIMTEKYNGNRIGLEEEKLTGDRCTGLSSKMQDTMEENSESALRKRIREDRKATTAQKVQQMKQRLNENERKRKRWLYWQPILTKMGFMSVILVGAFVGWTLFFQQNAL
Procedure, shortened: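 293T.109 cells with ectopic N-terminal HiBiT-tagged PTPN2 (5000/well) exposed to compounds for 24 h at 37 °C, 5% CO2; 11-point half-log titration from 10 μM top, duplicates. Remaining HiBiT-PTPN2 read as luminescence with Nano-Glo HiBiT lytic reagent, normalised to untreated cells (0%) and reagent-free wells.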

PTPN2 (B16F10.4 cells) = target: T2, PTPN2 (B16F10.4 cells) (Mus musculus, UniProt Q06180); experiment: HiBiT Degradation B16F10.4 PTPN2; format: cell-based; settings: 24.0 hours
T2 construct: HiBiT; host or cells: B16F10.4
T2 sequence (Q06180 1-406): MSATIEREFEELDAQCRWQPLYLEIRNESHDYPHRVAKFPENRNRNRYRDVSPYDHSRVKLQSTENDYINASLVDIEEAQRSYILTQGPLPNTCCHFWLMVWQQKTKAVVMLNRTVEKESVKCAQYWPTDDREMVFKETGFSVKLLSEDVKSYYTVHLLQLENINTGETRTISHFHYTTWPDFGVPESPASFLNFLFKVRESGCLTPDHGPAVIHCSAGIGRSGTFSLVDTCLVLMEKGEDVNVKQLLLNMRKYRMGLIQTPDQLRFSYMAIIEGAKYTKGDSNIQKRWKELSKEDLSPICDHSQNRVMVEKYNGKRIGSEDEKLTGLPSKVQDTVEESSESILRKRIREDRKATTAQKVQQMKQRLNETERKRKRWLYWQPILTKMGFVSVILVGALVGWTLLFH

Structure (SMILES) | DC50 [1] | DC50 (PTPN2 (B16F10.4 cells))
Cn1c(=O)n(C2CCC(=O)NC2=O)c2ccc(N3CCC(OCC(=O)Nc4cccc(CS(=O)(=O)N5CC[C@H](Nc6cccc(-c7sc(C(=O)O)c(OCC(=O)O)c7Cl)c6)CC5(C)C)c4)CC3)cc21 (stereo partly drawn) [Example 105, 3-(carboxymethoxy)-4-chloro-5-[3-[[(4S)-1-[[3-[[2-[[1-[1-(2,6-dioxo-3-piperidyl)-3-methyl-2-oxo-benzimidazol-5-yl]-4-piperidyl]oxy]acetyl]amino]phenyl]methylsulfonyl]-2,2-dimethyl-4-piperidyl]amino]phenyl]thiophene-2-carboxylic acid] | 50 to 200 nM | 200 to 1000 nM
Cn1c(=O)n(C2CCC(=O)NC2=O)c2ccc(C3CCN(C(=O)Nc4cccc(CS(=O)(=O)N5CC[C@@H](Nc6cc(-c7sc(C(=O)O)c(OCC(=O)O)c7Cl)ccc6F)CC5(C)C)c4)CC3)cc21 (stereo partly drawn) [Example 133] | 200 to 1000 nM | 50 to 200 nM
CC(C)n1c(=O)n([C@@H]2CCC(=O)NC2=O)c2ccc(C3CCN(C(=O)Nc4cccc(CS(=O)(=O)N5CC[C@H](Nc6cccc(-c7sc(C(=O)O)c(OCC(=O)O)c7Cl)c6)CC5(C)C)c4)CC3)cc21 (single isomer, unassigned) [Example 87a] | 50 to 200 nM | 50 to 200 nM
Cn1c(=O)n(C2CCC(=O)NC2=O)c2ccc(C3CCN(C(=O)Nc4cccc(CS(=O)(=O)N5CC[C@H](Nc6cccc(-c7sc(C(=O)O)c(OCC(=O)O)c7Cl)c6F)CC5(C)C)c4)CC3)cc21 (stereo partly drawn) [Example 134, 3-(carboxymethoxy)-4-chloro-5-[3-[[(4S)-1-[[3-[[4-[1-(2,6-dioxo-3-piperidyl)-3-methyl-2-oxo-benzimidazol-S-yl]piperidine-1-carbonyl]amino]phenyl]methylsulfonyl]-2,2-dimethyl-4-piperidyl]amino]-2-fluoro-phenyl]thiophene-2-carboxylic acid] | < 50 nM | < 50 nM
Cn1c(=O)n(C2CCC(=O)NC2=O)c2ccc(C3CCN(C(=O)Nc4cccc(CS(=O)(=O)N5CC[C@H](Nc6cccc(-c7sc(C(=O)O)c(OCC(=O)O)c7Cl)c6)CC5(C)C)c4)CC3)cc21 (stereo partly drawn) [Example 60, 3-(carboxymethoxy)-4-chloro-5-(3-(((4S)-1-((3-(4-(1-(2,6-dioxopiperidin-3-yl)-3-methyl-2-oxo-2,3-dihydro-1H-benzo[d]imidazol-5-yl)piperidine-1-carboxamido)benzyl)sulfonyl)-2,2-dimethylpiperidin-4-yl)amino)phenyl)thiophene-2-carboxylic acid] | 50 to 200 nM | < 50 nM
Cn1c(=O)n(C2CCC(=O)NC2=O)c2ccc(C3CCN(C(=O)Nc4cccc(CS(=O)(=O)N5CCC(Nc6cc(-c7sc(C(=O)O)c(OCC(=O)O)c7Cl)ccc6F)CC5)c4)CC3)cc21 (stereo not drawn) [Example 121, 3-(carboxymethoxy)-4-chloro-5-[3-[[1-[[3-[[4-[1-(2,6-dioxo-3-piperidyl)-3-methyl-2-oxo-benzimidazol-5-yl]piperidine-1-carbonyl]amino]phenyl]methylsulfonyl]-4-piperidyl]amino]-4-fluoro-phenyl]thiophene-2-carboxylic acid] | 200 to 1000 nM | 50 to 200 nM
CC1(C)C[C@@H](Nc2cccc(-c3sc(C(=O)O)c(OCC(=O)O)c3Cl)c2)CCN1S(=O)(=O)Cc1cccc(NC(=O)N2CCC(C(=O)NCc3cccc4c3CN(C3CCC(=O)NC3=O)C4=O)CC2)c1 (stereo partly drawn) [Example 84, 3-(carboxymethoxy)-4-chloro-5-[3-[[(4S)-1-[[3-[[4-[[2-(2,6-dioxo-3-piperidyl)-1-oxo-isoindolin-4-yl]methylcarbamoyl]piperidine-1-carbonyl]amino]phenyl]methylsulfonyl]-2,2-dimethyl-4-piperidyl]amino]phenyl]thiophene-2-carboxylic acid] | 200 to 1000 nM | ≥ 1000 nM
Cn1c(=O)n(C2CCC(=O)NC2=O)c2ccc(C3CCCN(C(=O)Nc4cccc(CS(=O)(=O)N5CC[C@H](Nc6cccc(-c7sc(C(=O)O)c(OCC(=O)O)c7Cl)c6)CC5(C)C)c4)C3)cc21 (stereo partly drawn) [Example 203, 3-(carboxymethoxy)-4-chloro-5-[3-[[(4S)-1-[[3-[[3-[1-(2,6-dioxo-3-piperidyl)-3-methyl-2-oxo-benzimidazol-5-yl]piperidine-1-carbonyl]amino]phenyl]methylsulfonyl]-2,2-dimethyl-4-piperidyl]amino]phenyl]thiophene-2-carboxylic acid] | 200 to 1000 nM | 50 to 200 nM
O=C(O)COc1c(C(=O)O)sc(-c2cccc(NC3CCN(S(=O)(=O)Cc4cccc(NC(=O)CCCCCN5CCC(Nc6cccc7c6CN(C6CCC(=O)NC6=O)C7=O)CC5)c4)CC3)c2)c1Cl (stereo not drawn) [Example 33, 3-(carboxymethoxy)-4-chloro-5-[3-[[1-[[3-[6-[4-[[2-(2,6-dioxo-3-piperidyl)-1-oxo-isoindolin-4-yl]amino]-1-piperidyl]hexanoylamino]phenyl]methylsulfonyl]-4-piperidyl]amino]phenyl]thiophene-2-carboxylic acid] | 200 to 1000 nM | ≥ 1000 nM
Cn1c(=O)n(C2CCC(=O)NC2=O)c2ccc(C3CCN(C(=O)Nc4cccc(CS(=O)(=O)N5CC[C@H](Nc6cccc(-c7sc(C(=O)O)c(OCC(=O)O)c7Cl)c6)CC5(C)C)c4)CC3F)cc21 (stereo partly drawn) [Example 170, 3-(carboxymethoxy)-4-chloro-5-[3-[[(4S)-1-[[3-[[4-[1-(2,6-dioxo-3-piperidyl)-3-methyl-2-oxo-benzimidazol-5-yl]-3-fluoro-piperidine-1-carbonyl]amino]phenyl]methylsulfonyl]-2,2-dimethyl-4-piperidyl]amino]phenyl]thiophene-2-carboxylic acid] | < 50 nM | < 50 nM
CC1(C)C[C@@H](Nc2cccc(-c3sc(C(=O)O)c(OCC(=O)O)c3Cl)c2)CCN1S(=O)(=O)Cc1cccc(NC(=O)N2CCC(c3ccc4c(c3)oc(=O)n4C3CCC(=O)NC3=O)CC2)c1 (stereo partly drawn) [Example 68, 3-(carboxymethoxy)-4-chloro-5-[3-[[(4S)-1-[[3-[[4-[3-(2,6-dioxo-3-piperidyl)-2-oxo-1,3-benzoxazol-6-yl]piperidine-1-carbonyl]amino]phenyl]methylsulfonyl]-2,2-dimethyl-4-piperidyl]amino]phenyl]thiophene-2-carboxylic acid] | 50 to 200 nM | 50 to 200 nM
CCn1c(=O)n(C2CCC(=O)NC2=O)c2ccc(C3CCN(C(=O)Nc4cccc(CS(=O)(=O)N5CC[C@H](Nc6cccc(-c7sc(C(=O)O)c(OCC(=O)O)c7Cl)c6)CC5(C)C)c4)CC3)cc21 (stereo partly drawn) [Example 88, 3-(carboxymethoxy)-4-chloro-5-(3-(((4S)-1-((3-(4-(1-(2,6-dioxopiperidin-3-yl)-3-ethyl-2-oxo-2,3-dihydro-1H-benzo[d]imidazol-5-yl)piperidine-1-carboxamido)benzyl)sulfonyl)-2,2-dimethylpiperidin-4-yl)amino)phenyl)thiophene-2-carboxylic acid] | < 50 nM | 50 to 200 nM
Cn1c(=O)n(C2CCC(=O)NC2=O)c2ccc(C3CCN(C(=O)Nc4cccc(CS(=O)(=O)N5CC[C@H](Nc6cccc(-c7sc(C(=O)O)c(OCC(=O)O)c7Cl)c6)CC5(C)C)c4)CC3)c(Cl)c21 (stereo partly drawn) [Example 207, 3-(carboxymethoxy)-4-chloro-5-[3-[[(4S)-1-[[3-[[4-[4-chloro-1-(2,6-dioxo-3-piperidyl)-3-methyl-2-oxo-benzimidazol-5-yl]piperidine-1-carbonyl]amino]phenyl]methylsulfonyl]-2,2-dimethyl-4-piperidyl]amino]phenyl]thiophene-2-carboxylic acid] | 50 to 200 nM | 50 to 200 nM
Cn1c(=O)n(C2CCC(=O)NC2=O)c2ccc(N3CC4(CCN(C(=O)Nc5cccc(CS(=O)(=O)N6CCC(Nc7cccc(-c8sc(C(=O)O)c(OCC(=O)O)c8Cl)c7)CC6)c5)CC4)C3)cc21 (stereo not drawn) [Example 113, 3-(carboxymethoxy)-4-chloro-5-[3-[[1-[[3-[[2-[1-(2,6-dioxo-3-piperidyl)-3-methyl-2-oxo-benzimidazol-5-yl]-2,7-diazaspiro[3.5]nonane-7-carbonyl]amino]phenyl]methylsulfonyl]-4-piperidyl]amino]phenyl]thiophene-2-carboxylic acid] | 50 to 200 nM | 50 to 200 nM
Cn1c(=O)n(C2CCC(=O)NC2=O)c2ccc(N3CCC(C(=O)Nc4cccc(CS(=O)(=O)N5CC[C@H](Nc6cccc(-c7sc(C(=O)O)c(OCC(=O)O)c7Cl)c6)CC5(C)C)c4)CC3)cc21 (stereo partly drawn) [Example 122] | 50 to 200 nM | 50 to 200 nM
